Assay results as given in paper PMC9122897, “SHR1032, a novel STING agonist, stimulates anti-tumor immunity and directly induces AML apoptosis” (Scientific Reports, 2022).
Where two headings read alike, the source gives them in different places.

Experiments:
[1] = target: T1, human STING (Homo sapiens, UniProt Q86WV6); experiment: Thermal shift assay; assay type: binding; conditions: human STING protein 5 uM; ligand bound vs apo
T1 construct: made in house; host or cells: E. coli
Excerpt: (§1) We sought to develop small molecule compounds with increased STING agonist activity against human STING. GSK reported a series of non-CDN small molecules, represented by compound 1[13], with good human STING agonistic activity. Based on our molecular modeling analysis, along with the reported CDN-STING crystal structures, we designed a novel series of fused tricyclic heterocycle compounds and analyzed their binding to human STING with thermal shift assays and the potency in activation of STING signaling with a reporter cellular assay (Supplementary Table S1). Thermal shift assays measure the difference between apo STING and ligand bound STING in the inflection point at which 50% of protein is thermally unfolded (ΔTm). […] The ability of compounds to activate the IRF reporter gene in the THP1 cells was also evaluated.
The melting temperature (Tm) of human STING was determined by calculating the temperature at the inflection point of the thermal melt curve generated on a Roche LightCycler 480 using 384 plate format and 465–590 nm filter set. […] Florescence was measured while ramping the plate temperature from 20 to 95 °C and the resulting data was processed using ROCHE data analysis software. Delta Tms were calculated by subtracting the Tm of untreated protein from ligand treated samples. […]

[2] = system: THP1 reporter cells; experiment: THP1 IRF luciferase reporter assay; assay type: cell-based; conditions: Homo sapiens, THP-1; IRF Lucia luciferase reporter, 24 h; read-out: THP1 reporter cell EC50
Excerpt: as §1
THP1 reporter cells were treated for 24 h with a total of 100 k cells and 150 ul media in each well a 96-well plate. […] Luminescence signal was measured using Tecan infinite M1000. EC50 values were calculated using non-linear regression analysis of GraphPad Prism. Cell growth was monitored by CellTiter-Glo Luminescent Cell Viability Assay (Promega) per manufacture’s protocol. GI50 values were calculated using non-linear regression analysis of GraphPad Prism. […]

[3] = system: THP1-STING-R232 cells; experiment: CellTiter-Glo cell growth; assay type: cell-based, human
Experimental: (§2) (a–d) AML cells were treated with STING agonists and standard of care cytarabine, and cell viability was measured by CellTiter Glo in (a) THP1-STING-R232, (b) THP1-STING-KO, (c) MV-4-11 and (d) MOLM-16. (e) MV-4-11, MOLM-16 and THP1-STING-KO cells were stimulated with 1 µM of SHR1032 for the indicated time points. The amount of pTBK1, total TBK1, pSTING, total STING and α-tubulin was measured by Western blot. pSTING phosphorylated STING. THP1 reporter cells were treated for 24 h with a total of 100 k cells and 150 ul media in each well a 96-well plate. Following the incubation, 20 µl of supernatant was transferred to an opaque 96 well ½ area plate and incubated for 30 s with 50 µl of QUANTI-Luc substrate (InvivoGen) per manufacturer’s instructions. Luminescence signal was measured using Tecan infinite M1000. EC50 values were calculated using non-linear regression analysis of GraphPad Prism. Cell growth was monitored by CellTiter-Glo Luminescent Cell Viability Assay (Promega) per manufacture’s protocol. GI50 values were calculated using non-linear regression analysis of GraphPad Prism. Cell lysates for western blotting were made in RIPA buffer (Sigma) with Halt Protease and Phosphatase Inhibitors (Thermo Scientific). Antibodies against pSTING, TBK1, pTBK1 and tubulin were purchased from Cell Signaling Technologies, and anti-STING was purchased from Protein Tech.

[4] = system: MOLM-16 cells; experiment: CellTiter-Glo cell growth; assay type: cell-based; conditions: Homo sapiens, MOLM16; MOLM-16, CellTiter Glo
Experimental: as §2

[5] = system: MV4-11 cells; experiment: CellTiter-Glo cell growth; assay type: cell-based; conditions: Homo sapiens; MV4-11, CellTiter Glo
Experimental: as §2

[6] = system: THP1-STING-KO cells; experiment: CellTiter-Glo cell growth; assay type: cell-based, human
Experimental: as §2

[7] = system: MC38 mouse syngeneic colorectal adenocarcinoma; experiment: MC38 syngeneic tumor model; assay type: in vivo, C57BL/6 mouse; conditions: 50 µg intratumorally on day 1, 5, 8; after 21 days since the first dosing
Experimental: Figure 3 Robust cytokine induction and antitumor effects in vivo. (a,b) C57BL/6 mice were inoculated with mouse MC38 colon cancer cells in the left flank. When tumor volumes were 100 mm^3, they received intratumoral (IT) dose of 100 µg of SHR1032 on day 1, 5, 8 and 12 or IT dose of 50 µg ADU-S100 on day 1, 5, and 8, or vehicle, respectively. (a) Tumor volume was measured at different time points. Results are shown as mean tumor volume ± sem. (n = 8 animals per group). (b) Mouse bodyweight was measured at different time points. (c–f) C57BL/6 mice were inoculated with mouse MC38 colon cancer cells in the left flank. When tumor volumes were 100 mm^3, they received one IT dose of 100 µg of SHR1032 or 50 µg ADU-S100, or vehicle. (c) IFNβ, (d) IL-6 and (e) TNFα from both tumor and plasma was measured by ELISA 4 h after. (f) SHR1032 compound concentration in tumors were measured.
Human and Cynomolgous PBMC’s were thawed and spun down in Lymphocyte media (ZENBIO) and resuspended in media to 1.5 x 10^6 cells/ml density. Mouse RAW 264.7 cells were detached from the flask and resuspended in media to 1.5 x 10^6 cells/ml density. Then, 100 µl of media containing the cells was added to each well of a 96-well plate containing compound in 50 µl of media. Plates were incubated for 5 h at 37 °C and supernatant was collected for ELISA analysis. Human and monkey IFN-β protein concentration was measured using human IFN-β Quantikine ELISA Kits (R&D Systems) per manufacture’s protocol. Mouse IFN-β was measured using mouse IFN-β Quantikine ELISA Kits (R&D Systems) per manufacture’s protocol. Mouse TNFα, IFN-β and IL-6 in the tumor lysates and plasma was measured by Quantikine ELISA Kits (R&D Systems) per manufacture’s protocol.
Female C57BL/6 mice, aged between 8 and 10 weeks old, were purchased from Charles River Lab. MC38 mouse colorectal cancer cells were resuspended as single cell solution in PBS at a concentration of 5 × 10^6 cells/ml. One hundred µl of cell suspension were implanted in the right flank of mice subcutaneously. Tumor size was measured by a caliper in three dimensions and its volume was then calculated according to the following formula: Tumor Volume (mm^3) = l * w * h * 0.5236, where l = length, w = width and h = height in mm for a tumor. When the average tumor volume reached around 100 mm^3, the mice were randomly assigned into three groups (n = 8) and each group of mice received one regimen. This day was assigned as day 0 for the study. […] Tumor volume and body weight were measured 3 times per week throughout the study. […] Cytokines and SHR1032 concentration in the plasma and tumor tissues were analyzed. […]

T1 sequence (Q86WV6 155-341 limits assumed): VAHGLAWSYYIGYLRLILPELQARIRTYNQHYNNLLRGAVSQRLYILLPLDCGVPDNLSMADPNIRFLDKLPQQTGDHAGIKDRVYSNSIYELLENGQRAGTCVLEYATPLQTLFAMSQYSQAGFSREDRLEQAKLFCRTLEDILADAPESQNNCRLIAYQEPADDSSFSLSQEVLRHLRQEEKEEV

## C=CC[C@H]1COc2cc(C(N)=O)cc3nc(NC(=O)c4cc(C)nn4CC)n1c23 [Compound 2]
[1]
  Thermal shift ∆Tm: 5.7 °C
[2]
  EC50: 1600 nM

## Nc1ccn([C@@H]2O[C@H](CO)[C@@H](O)[C@@H]2O)c(=O)n1 [cytarabine, reference compound]
[3]; Homo sapiens
  GI50: 100 nM
[4]
  GI50: 450 nM
[5]
  GI50: 340 nM

## Nc1ncnc2c1ncn2[C@@H]1O[C@@H]2COP(=O)([S-])O[C@@H]3[C@H](O)[C@@H](COP([O-])(=S)O[C@H]2[C@H]1O)O[C@H]3n1cnc2c(N)ncnc21.[Na+].[Na+] (some centres unmarked) [ADU-S100, reference compound]
[6]
  cell growth inhibition: not detectable
[3]
  GI50: 9440 nM
[7]
  tumor response: complete tumor regression
